Tests used:
[1] = Partitioning between whole blood and plasma; type: in vitro ADME; settings: mouse whole blood, spiked 10, 1 and 0.1 μM, 30 min at 37°C
[2] = Plasma pharmacokinetics of; type: in vivo, Wistar rat; settings: for concentration at 30 min / concentration at 40 min: male, Wistar, rat, ip; for concentration at 30 min / concentration at 40 min / t1/2 / Cmax / Tmax: plasma; for t1/2 Ratio (A/C): Acute Arm t1/2 / Chronic Arm t1/2 (fold reduction by 14-day dosing); for Plasma concentration Ratio (C/A): Chronic Arm / Acute Arm; for Plasma concentration at 30 min after ip administration: Acute Arm, single ip 40 mg/kg (R,S)-Ket
[3] = Acute: single ip 40 mg/kg (R,S)-Ket
[4] = Acute: single ip 40 mg/kg (R,S)-Ket, 40 mg/kg
[5] = Sub-chronic: Day 14 of ip 40 mg/kg (R,S)-Ket once per day for 14 days

Question: Which “Share of compound found in the plasma fraction after incubation with whole blood” value [1] does the source give for NC1(c2ccccc2Cl)CCC=CC1=O (racemic) [(R,S)-DHNK, (R,S)-dehydronorketamie] here?
Answer: < 20%

Question: And the “Plasma concentration at any sampling time” value ([2]; after ip 40 mg/kg (R,S)-Ket, both arms)?
Answer: ≤ 10 ng/mL

Question: Which “Share of compound found in the plasma fraction after incubation with whole blood” value [1] does the source give for CNC1(c2ccccc2Cl)CCCCC1=O (racemic) [(R,S)-Ket, (R,S)-Ketamine, reference compound] here?
Answer: > 90%

Question: What about the “Plasma concentration between 5 min and 60 min post-administration” value [2, 3] of the same compound?
Answer: > 1,000 ng/ml

Question: What about the concentration at 30 min ([2]; 40 mg/kg) of the same compound?
Answer: 2780 ng/mL

Question: And the concentration at 40 min ([2]; 40 mg/kg)?
Answer: 2600 ng/mL

Question: For NC1(c2ccccc2Cl)CCCCC1=O (racemic) [(R,S)-norKet, (R,S)-norketamine], which “Share of compound found in the plasma fraction after incubation with whole blood” value [1] is on record?
Answer: > 90%

Question: What about the “Fold reduction of relative plasma concentration by subchronic dosing” value ([2]; 30 min post dosing, subchronic versus acute) of the same compound?
Answer: 1.6 fold

Question: And the “t1/2 Ratio (A/C)” value [2]?
Answer: 1.4

Question: What about the “Plasma concentration between 5 min and 60 min post-administration” value [2, 3] of the same compound?
Answer: > 1,000 ng/ml

Question: What about the “Plasma concentration Ratio (C/A)” value ([2]; 30 min post dosing) of the same compound?
Answer: 0.62

Question: What about the concentration at 30 min ([2]; 40 mg/kg) of the same compound?
Answer: 2130 ng/mL

Question: What about the concentration at 40 min ([2]; 40 mg/kg) of the same compound?
Answer: 1340 ng/mL

Question: For NC1(c2ccccc2Cl)CC(O)CCC1=O [(2S,4R;2R,4S)-HNK, (2S,4R;2R,4S)-hydroxynorketamine], which “Plasma concentration at 30 min after ip administration” value [2] is on record?
Answer: 218 ng/mL

Question: And the “Plasma concentration between 5 min and 60 min post-administration” value [2, 3]?
Answer: > 50 ng/mL

Question: And the “Plasma concentration at 10 min post-dosing” value [2, 4]?
Answer: 257 ± 195 ng/mL

Question: What about the “Plasma concentration Ratio (C/A)” value ([2]; 30 min post dosing) of the same compound?
Answer: 1.7

Question: And the “Plasma concentration Ratio (C/A)” value ([2]; 30 min post dosing, listed as (2S,4R,2R,4S)-HNK)?
Answer: 1.73

Question: And the t1/2 [2, 5]?
Answer: 5.0 h

Question: With NC1(c2ccccc2Cl)CC(O)CCC1=O [(2S,4S;2R,4R)-HNK] as the compound, how does the “Plasma concentration between 5 min and 60 min post-administration” value [2, 3] read?
Answer: > 50 ng/mL

Question: What about the “Plasma concentration at 10 min post-dosing” value [2, 4] of the same compound?
Answer: 196 ± 132 ng/mL

Question: For NC1(c2ccccc2Cl)CCC(O)CC1=O [(2S,5S;2R,5R)-HNK], which “Plasma concentration at 10 min post-dosing” value [2, 3] is on record?
Answer: 181 ± 141 ng/mL

Question: And the “Plasma concentration between 5 min and 60 min post-administration” value [2, 3]?
Answer: > 50 ng/mL

Question: What does the source list for NC1(c2ccccc2Cl)CCCC(O)C1=O [(2S,6R;2R,6S)-HNK, (2S,6R;2R,6S)-hydroxynorketamine]?
Answer: Plasma concentration at 30 min after ip administration [2]: 172 ng/mL; Plasma concentration at 10 min post-dosing [2, 3]: 252 ± 81 ng/mL; Plasma concentration between 5 min and 60 min post-administration [2, 3]: > 50 ng/mL; Plasma concentration Ratio (C/A) ([2]; 30 min post dosing): 4.5; Plasma concentration Ratio (C/A) ([2]; 30 min post dosing, listed as (2S,6R,2R,6S)-HNK): 4.53; Cmax [2, 5]: 2101 ng/mL; t1/2 [2, 5]: 1.3 h

Question: Which results are given for N[C@@]1(c2ccccc2Cl)CCC[C@@H](O)C1=O [(2S,6S;2R,6R)-HNK, (2S,6S;2R,6R)-hydroxynorketamine]?
Answer: t1/2 Ratio (A/C) [2]: 1.2; Plasma concentration at 30 min after ip administration [2]: 4327 ng/mL; Plasma concentration between 5 min and 60 min post-administration [2, 3]: > 1,000 ng/ml; Cmax [2, 3]: 4641 ± 2020 ng/mL; Tmax [2, 3]: 0.61 ± 0.35 h; t1/2 ([2]; Acute: single ip 40 mg/kg (R,S)-Ket, male Wistar rats): 13.2 ± 3.7 h; Plasma concentration Ratio (C/A) ([2]; 30 min post dosing): 1.4; Plasma concentration Ratio (C/A) ([2]; 30 min post dosing, listed as (2S,6S,2R,6R)-HNK): 1.42; Plasma concentration at 72 hr post-administration ([2]; Sub-chronic, Day 14 dose): 15 ± 7 ng/mL; Cmax [2, 5]: 6491 ± 3008 ng/mL; Tmax [2, 5]: 0.78 ± 0.19 h; t1/2 [2, 5]: 11.1 ± 1.8 h
